The target of assay [1] is T1, α3β4 nAChR (Rattus norvegicus, UniProt P04757+P12392). The assay is described as follows: biochemical. It is filed as binding. More on the design: host or cells: HEK293 (KXα3β4R2). Conditions: for k′(NLC) retention capacity factor: 10 μM, 20 μl injected, ammonium acetate 10 mM pH 7.4/methanol 85:15.
For assay [2], the target named is T1, α3β4 nAChR. The assay is described as follows: Nicotine-stimulated 86Rb+ efflux assay, KXα3β4R2 cell line. It is filed as cell-based. More on the design: host or cells: HEK293 (KXα3β4R2). The procedure:
After the prediction has been done based on clustering the actual values of IC50 were determined using the nicotine-stimulated ^86Rb^+ efflux assay on cell line KXα3β4R2.

Another assay concerns nAChR, SH-SY5Y cells. The assay is described as follows: Rb+ efflux assay, SH-SY5Y cells. The format is cell-based, human. Conditions: cell line SH-SY5Y.
The mark [3] stands for this setting: α3β4 nAChR, NLC, read-out: koff dissociation constant rate.
[4] abbreviates: α3β4 nAChR, NLC, read-out: kon association constant rate.
The mark [5] stands for this setting: α3β4 nAChR, NLC, read-out: log K chromatographic equilibrium constant (converted).
The mark [6] stands for this setting: nicotine-stimulated 86Rb+ efflux, cell line KXα3β4R2, read-out: IC50.

SMILES strings stand for the structures. Read-outs that look alike come from different tables or passages of the source.

T1 sequence (P04757 26-499): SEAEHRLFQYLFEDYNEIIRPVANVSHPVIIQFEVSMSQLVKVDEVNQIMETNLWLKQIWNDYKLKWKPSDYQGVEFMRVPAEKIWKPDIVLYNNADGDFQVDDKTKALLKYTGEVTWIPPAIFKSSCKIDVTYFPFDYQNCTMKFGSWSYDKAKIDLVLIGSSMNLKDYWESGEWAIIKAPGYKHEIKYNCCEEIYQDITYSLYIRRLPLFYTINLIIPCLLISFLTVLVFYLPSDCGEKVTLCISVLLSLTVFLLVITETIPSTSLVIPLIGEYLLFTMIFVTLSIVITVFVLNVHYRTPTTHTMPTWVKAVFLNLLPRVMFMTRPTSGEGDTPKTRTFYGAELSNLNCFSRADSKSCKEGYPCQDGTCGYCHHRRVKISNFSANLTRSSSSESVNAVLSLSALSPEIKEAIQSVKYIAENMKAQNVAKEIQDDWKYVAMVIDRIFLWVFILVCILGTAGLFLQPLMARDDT
T1 sequence (P12392 21-495): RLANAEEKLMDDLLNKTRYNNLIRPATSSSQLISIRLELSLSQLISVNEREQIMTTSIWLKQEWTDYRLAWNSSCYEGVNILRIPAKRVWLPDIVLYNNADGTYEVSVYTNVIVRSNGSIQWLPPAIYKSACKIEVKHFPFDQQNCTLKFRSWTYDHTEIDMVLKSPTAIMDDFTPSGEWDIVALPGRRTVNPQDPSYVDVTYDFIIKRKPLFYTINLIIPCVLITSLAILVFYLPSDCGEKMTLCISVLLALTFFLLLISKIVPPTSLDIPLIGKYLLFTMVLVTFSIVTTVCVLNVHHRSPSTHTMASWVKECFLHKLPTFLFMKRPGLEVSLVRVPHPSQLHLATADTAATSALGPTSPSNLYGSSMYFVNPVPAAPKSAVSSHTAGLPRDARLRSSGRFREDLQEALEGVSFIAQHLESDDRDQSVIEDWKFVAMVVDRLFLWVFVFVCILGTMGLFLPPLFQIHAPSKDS

For `COc1ccc(CCNCCCC(C#N)(c2ccc(OC)c(OC)c2)C(C)C)cc1OC` (single isomer, unassigned) [nor-verapamil-R, nor-verapamil], the koff at α3β4 nAChR [1] (setting [3]) stood at 0.58 s⁻¹. In addition, at α3β4 nAChR [1] (setting [4]), the on-rate (kon) was 1.6e+07 M⁻¹ s⁻¹. At α3β4 nAChR [1] (setting [5]), the Kd was 0.0363 µM. The “k′(NLC) retention capacity factor” value at α3β4 nAChR [1] (α3β4 nAChR) turned out to be 97.99.

For the compound `COc1ccc(CCNCCCC(C#N)(c2ccc(OC)c(OC)c2)C(C)C)cc1OC` (single isomer, unassigned) [nor-verapamil-S, nor-verapamil], at α3β4 nAChR [1] (α3β4 nAChR, NLC), the “koff dissociation constant rate” value was 0.61 s⁻¹. For the same compound, the Kd at α3β4 nAChR [1] (setting [5]) was 0.0398 µM. Besides, the “k′(NLC) retention capacity factor” value at α3β4 nAChR [1] (α3β4 nAChR) is 97.86.

Consider `COc1ccc2c(c1)[C@@]13CCCC[C@H]1[C@@H](C2)NCC3` [3 MM], for which, on α3β4 nAChR [1] (α3β4 nAChR, NLC), the “koff dissociation constant rate” value worked out at 1.00 s⁻¹ and the “log K chromatographic equilibrium constant” value turned out to be 7.28 M^−1. In addition, at α3β4 nAChR [1] (α3β4 nAChR), the “k′(NLC) retention capacity factor” value was found to be 56.47.

For the compound `CNCCCC(C#N)(c1ccc(OC)c(OC)c1)C(C)C` [Compound D-617], at α3β4 nAChR [1] (α3β4 nAChR, NLC), the “koff dissociation constant rate” value was determined as 2.72 s⁻¹ and the “log K chromatographic equilibrium constant” value is listed as 6.74 M^−1. On α3β4 nAChR [1] (α3β4 nAChR), the “k′(NLC) retention capacity factor” value came out at 22.22.

Turning to `COc1ccc(C(C#N)(CCCN)C(C)C)cc1OC` [Compound D-620], on α3β4 nAChR [1] (α3β4 nAChR), the “logk′” value came to 1.25 and the “k′(NLC) retention capacity factor” value is listed as 17.72. Further, at α3β4 nAChR [1] (α3β4 nAChR, NLC), the “koff dissociation constant rate” value amounted to 3.43 s⁻¹ and the “log K chromatographic equilibrium constant” value is 6.53 M^−1. Also, on α3β4 nAChR [2] (setting [6]), the IC50 turned out to be 48.9 µM.

Turning to `CN(C)CCN1C(=O)[C@H](O)[C@H](c2ccc(O)cc2)Sc2ccccc21` [Compound M4], at α3β4 nAChR [1] (α3β4 nAChR), the “logk′” value is on record as 1.45. Further, at α3β4 nAChR [2] (setting [6]), the IC50 came to 73.2 µM.

In the case of `CNCCN1C(=O)[C@H](O)[C@H](c2ccc(O)cc2)Sc2ccccc21` [Compound M6], the “logk′” value on α3β4 nAChR [1] (α3β4 nAChR) is 1.48. Further, on α3β4 nAChR [2] (setting [6]), the IC50 was 63.1 µM.

Turning to `CNCCN1C(=O)[C@H](OC(C)=O)[C@H](c2ccc(OC)cc2)Sc2ccccc21` [MA], at α3β4 nAChR [1] (α3β4 nAChR), the “logk′” value is recorded as 1.61. For the same compound, on α3β4 nAChR [2] (setting [6]), the IC50 stood at 4.2 µM.

On to `C[C@]12N[C@H](Cc3ccccc31)c1ccccc12` [MK-801], for which the koff at α3β4 nAChR [1] (setting [3]) was 3.48 s⁻¹. The on-rate constant (kon) at α3β4 nAChR [1] (setting [4]) was determined as 2.71e+07 M⁻¹ s⁻¹. The Kd on α3β4 nAChR [1] (setting [5]) is 0.129 µM. Further, the “k′(NLC) retention capacity factor” value on α3β4 nAChR [1] (α3β4 nAChR) is given as 19.10.

Take `CC(=O)Nc1ccc(O)cc1` [acetaminophen]: on α3β4 nAChR [1] (setting [3]), the koff came to 17.2 s⁻¹. The kon at α3β4 nAChR [1] (setting [4]) worked out at 8.4e+06 M⁻¹ s⁻¹. Besides, on α3β4 nAChR [1] (setting [5]), the Kd is 2.04 µM. For the same compound, the “k′(NLC) retention capacity factor” value at α3β4 nAChR [1] (α3β4 nAChR) was determined as 5.30.

Turning to `CC(=O)Nc1ccccc1` [acetanilide], at α3β4 nAChR [1] (setting [3]), the dissociation rate constant (koff) came out at 25.5 s⁻¹. For the same compound, at α3β4 nAChR [1] (setting [4]), the kon stood at 8.2e+06 M⁻¹ s⁻¹. Besides, at α3β4 nAChR [1] (setting [5]), the Kd is 3.09 µM. The “k′(NLC) retention capacity factor” value at α3β4 nAChR [1] (α3β4 nAChR) is recorded as 5.95.

For the compound `NC12CC3CC(CC(C3)C1)C2` [amantadine], the off-rate (koff) at α3β4 nAChR [1] (setting [3]) came out at 6.73 s⁻¹. For the same compound, the kon at α3β4 nAChR [1] (setting [4]) was 3.08e+07 M⁻¹ s⁻¹. In addition, the Kd at α3β4 nAChR [1] (setting [5]) is 0.219 µM. For the same compound, on α3β4 nAChR [1] (α3β4 nAChR), the “k′(NLC) retention capacity factor” value is recorded as 8.98.

As to `CCOC(=O)C1=C(COCCN)NC(C)=C(C(=O)OC)C1c1ccccc1Cl` (centres unmarked) [amlodipine], the IC50 against α3β4 nAChR [2] (IC50, nicotine-stimulated 86Rb+ efflux, cell line KXα3β4R2) worked out at 5.8 µM.

As to `CC(NC(C)(C)C)C(=O)c1cccc(Cl)c1` (centres unmarked) [bupropion], the off-rate (koff) at α3β4 nAChR [1] (setting [3]) turned out to be 5.14 s⁻¹. In addition, the on-rate constant (kon) at α3β4 nAChR [1] (setting [4]) was 2.87e+07 M⁻¹ s⁻¹. Also, at α3β4 nAChR [1] (setting [5]), the Kd is 0.178 µM. Besides, on α3β4 nAChR [1] (α3β4 nAChR), the “k′(NLC) retention capacity factor” value came out at 12.97. In the assay with nAChR, SH-SY5Y cells, this compound returned an IC50 of 1.4 µM.

Take `COc1ccc2c(c1)[C@]13CCCC[C@@H]1[C@H](C2)N(C)CC3` [dextromethorphan]: the “difference in ΔG of the complexes” value on α3β4 nAChR [1] (DM vs LM, chromatographic experiments) came to 0.3 kcal/mol. For the same compound, the “K′” value at α3β4 nAChR [1] (chromatographic (NLC and van't Hoff)) was 61.30 (±0.27). Further, the Ka at α3β4 nAChR [1] (chromatographic (NLC)) was 23.40 (±0.36) μM^−1. For the same compound, the koff on α3β4 nAChR [1] (chromatographic (NLC), read-out: Koff) is 1.01 s⁻¹; on α3β4 nAChR [1] (setting [3]), 1.01 s⁻¹. Besides, the kon on α3β4 nAChR [1] (chromatographic (NLC), read-out: Kon) is 2.37e+07 M⁻¹ s⁻¹; at α3β4 nAChR [1] (setting [4]), 2.37e+07 M⁻¹ s⁻¹. Further, the Kd on α3β4 nAChR [1] (chromatographic (NLC), read-out: logKa (converted)) is 0.0427 µM; on α3β4 nAChR [1] (setting [5]), 0.0427 µM. Besides, at α3β4 nAChR [1] (chromatographic (van't Hoff)), the “ΔG°” value was −2.33 (±0.4) kcal mol^−1. Moreover, the “ΔH°” value on α3β4 nAChR [1] (chromatographic (van't Hoff)) is −6.92 (±0.19) kcal mol^−1. The “ΔS°” value at α3β4 nAChR [1] (chromatographic (van't Hoff)) is on record as −15.70 (±0.7) cal mol^−1T^−1. Moreover, on α3β4 nAChR [1] (α3β4 nAChR), the “k′(NLC) retention capacity factor” value was 61.30. Besides, the IC50 at α3β4 nAChR [2] (IC50, nicotine stimulated Rb+ efflux) was found to be 10.1 µM; on α3β4 nAChR [2] (IC50, nicotine-stimulated 86Rb+ efflux, α3β4 nAChR) it was 10 µM; against α3β4 nAChR [2] (IC50 of Rb+ efflux, cell line KXα3β4R2) it was 10.1 µM.

Broadly, the koff is a measure of how fast the partners let go of each other. In general, kon refers to the rate constant with which the complex forms. In general, IC50 refers to the point on the concentration scale where inhibition reaches its midpoint.

The record behind these values is patent publication US7749984B2, “Computer-based model for identification and characterization of non-competitive inhibitors of nicotinic acetylcholine receptors and related ligand-gated ion channel receptors” (priority 2003, dated 2010).
